Test results as given in patent publication US11839683B2, “Method of rapidly achieving therapeutic concentrations of triptans for treatment of migraines” (EMERGEX USA CORPORATION, priority 2016, dated 2023).
Read-outs that look alike come from different tables or passages of the source.

Key:
[1] = In vitro dissolution, USP Paddle over Disk apparatus (USP apparatus 5); format: physicochemical; conditions: M207 1.9 mg patch
Procedure: In vitro dissolution of […] 1.9 mg patches were evaluated using standard USP Paddle over Disk apparatus (USP apparatus 5) with Distek […] 6-position dissolution tester. The paddle height was set at 25 mm above patch and rotated at 50 RPM. An USP vessel was filled with degassed 500 mL PBS dissolution medium and the temperature was controlled at 32° C. A full patch assembly containing the coated patch adhered to the center of an inner ring and then attached to an outer ring was inserted along the vessel wall into the vessel with the coated microprojections facing upright. […] […] patches stored at room temperature and at 40° C./75% relative humidity for 10 months were evaluated.

clinical = conditions: both, human, in vivo; for AUC(0-inf): AUCinf
Procedure: The final treatment administered was 3.8 mg on a 10 cm^2 patch using an applicator with 0.52 Joule of application energy in the intracutaneous microneedle system described herein. The products tested were:
This was a single-center, open-label, randomized five-way crossover study (Part 1) followed by a sequential study of two additional treatments (Parts 2 and 3). After obtaining informed consent and establishing eligibility, each subject received each of the seven study treatments once, followed by in-clinic monitoring and extensive blood sample collection for pharmacokinetic analysis. […] Plasma samples from the initial dosing days were sent to the analytical laboratory for analysis, and tolerability for each of the dose levels was summarized. […] During Part 3, subjects received a single 3.8 mg patch (applied with a 0.52 J applicator) and also completed identical procedures to the previous dosing days. After completion of the seven dosing days, subjects were assessed one final time and dismissed from the study.
Twenty subjects were enrolled in the study, 10 males and 10 females. The subjects mean age was 29 years±3.5 years with a mean BMI of 24.4±3.5.
PK parameters were summarized by treatment group using descriptive statistics (arithmetic means, standard deviations, coefficients of variation, sample size, minimum, maximum, and median).
Graphs of apparent dose linearity and proportionality of PK parameters (AUCt, AUCinf and Cmax) were compiled.

[2] = 10 mg oral, Seaber1997, cited from earlier work
migraine = conditions: cited from earlier work
[3] = NASAL 2.5 mg, 1 hour, Charlesworth et al, 2003
[4] = NASAL 2.5 mg, 2 hour, Charlesworth et al, 2003
[5] = NASAL 2.5 mg, 4 hour, Charlesworth et al, 2003
[6] = ODT 2.5 mg, 1 hour, Dowson et al, 2002
[7] = ODT 2.5 mg, 2 hour, Dowson et al, 2002
[8] = TABLET 2.5 mg, 1 hour, Pascual et al, 2000
[9] = TABLET 2.5 mg, 1 hour, Steiner et al, 2003
[10] = TABLET 2.5 mg, 2 hour, Pascual et al, 2000
[11] = TABLET 2.5 mg, 2 hour, Steiner et al, 2003
[12] = TABLET 5 mg, 1 hour, Dahlof et al 1998
[13] = TABLET 5 mg, 1 hour, Geraud et al, 2000
[14] = TABLET 5 mg, 2 hour, Dahlof et al 1998
[15] = TABLET 5 mg, 2 hour, Geraud et al, 2000
[16] = TABLET 5 mg, 4 hour, Geraud et al, 2000
[17] = TABLET 10 mg, 1 hour, Dahlof et al 1998
[18] = TABLET 10 mg, 2 hour, Dahlof et al 1998

SMILES: CN(C)CCc1c[nH]c2ccc(C[C@H]3COC(=O)N3)cc12 [Zolmitriptan, zolmitriptan]
- Percent Dissolution (% D) ([1]; E-beam irradiated, stored at 40° C./75% RH for 10 months, 0 s): 0%
- Percent Dissolution (% D) ([1]; E-beam irradiated, stored at 40° C./75% RH for 10 months, 20 s): 5-10%
- Percent Dissolution (% D) ([1]; E-beam irradiated, stored at 40° C./75% RH for 10 months, 40 s): 10-50%
- Percent Dissolution (% D) ([1]; E-beam irradiated, stored at 40° C./75% RH for 10 months, 60 s): 50-100%
- Percent Dissolution (% D) ([1]; E-beam irradiated, stored at 40° C./75% RH for 10 months, 80 s): 100%
- Percent Dissolution (% D) ([1]; E-beam irradiated, stored at 40° C./75% RH for 10 months, 100 s): 100%
- Percent Dissolution (% D) ([1]; E-beam irradiated, stored at RT for 10 months, 0 s): 0%
- Percent Dissolution (% D) ([1]; E-beam irradiated, stored at RT for 10 months, 20 s): 60-80%
- Percent Dissolution (% D) ([1]; E-beam irradiated, stored at RT for 10 months, 40 s): 90-100%
- Percent Dissolution (% D) ([1]; E-beam irradiated, stored at RT for 10 months, 60 s): 100%
- Percent Dissolution (% D) ([1]; E-beam irradiated, stored at RT for 10 months, 80 s): 100%
- Percent Dissolution (% D) ([1]; E-beam irradiated, stored at RT for 10 months, 100 s): 100%
- Percent Dissolution (% D) ([1]; non-irradiated, stored at 40° C./75% RH for 10 months, 0 s): 0%
- Percent Dissolution (% D) ([1]; non-irradiated, stored at 40° C./75% RH for 10 months, 20 s): 0%
- Percent Dissolution (% D) ([1]; non-irradiated, stored at 40° C./75% RH for 10 months, 40 s): 10-40%
- Percent Dissolution (% D) ([1]; non-irradiated, stored at 40° C./75% RH for 10 months, 60 s): 90-100%
- Percent Dissolution (% D) ([1]; non-irradiated, stored at 40° C./75% RH for 10 months, 80 s): 100%
- Percent Dissolution (% D) ([1]; non-irradiated, stored at 40° C./75% RH for 10 months, 100 s): 100%
- Tmax, Mean (SD) (clinical): 17.10 (11.82)
- Tmax, Median (clinical): 17.5 min
- t1/2, Mean (SD) (clinical): 91.70 (18.7)
- t1/2, Median (clinical): 96.2 min
- AUC(0-t) (clinical; 0.48 mg, AUC2 hrs, Mean (SD)): 2.11 ng·h/mL
- AUC(0-t) (clinical; 0.48 mg, AUC2 hrs, Median): 2.11 ng·h/mL
- AUC(0-inf) (clinical; 0.48 mg, Mean (SD)): 3.81 ng·h/mL
- AUC(0-inf) (clinical; 0.48 mg, Median): 3.78 ng·h/mL
- AUC(0-t) (clinical; 0.48 mg, AUCt, Mean (SD)): 2.81 ng·h/mL
- AUC(0-t) (clinical; 0.48 mg, AUCt, Median): 2.78 ng·h/mL
- Cmax (clinical; 0.48 mg, Mean (SD)): 1.84 ng/mL
- Cmax (clinical; 0.48 mg, Median): 1.8 ng/mL
- Tmax (clinical; 0.48 mg, Tmax, Mean (SD)): 17.3 min
- Tmax (clinical; 0.48 mg, Tmax, Median): 20 min
- half-life (clinical; 0.48 mg, t1/2, Mean (SD)): 69.1 min
- half-life (clinical; 0.48 mg, t1/2, Median): 64.6 min
- AUCinf, Median (clinical; 1.9 mg): 14.5 ng·h/mL
- AUC(0-t) (clinical; 1.9 mg, AUC2 hrs, Mean (SD)): 7.36 ng·h/mL
- AUC(0-t) (clinical; 1.9 mg, AUC2 hrs, Median): 7.75 ng·h/mL
- AUC(0-inf) (clinical; 1.9 mg, Mean (SD)): 14.1 ng·h/mL
- AUC(0-t) (clinical; 1.9 mg, AUCt, Mean (SD)): 12.3 ng·h/mL
- AUC(0-t) (clinical; 1.9 mg, AUCt, Median): 12.7 ng·h/mL
- Cmax (clinical; 1.9 mg, Mean (SD)): 6.76 ng/mL
- Cmax (clinical; 1.9 mg, Median): 6.4 ng/mL
- Tmax (clinical; 1.9 mg, Tmax, Mean (SD)): 17.9 min
- Tmax (clinical; 1.9 mg, Tmax, Median): 20 min
- half-life (clinical; 1.9 mg, t1/2, Mean (SD)): 87.8 min
- half-life (clinical; 1.9 mg, t1/2, Median): 84.7 min
- t1/2, Mean (SD) (clinical; 3.8 mg): 91.00 (18.80)
- AUC(0-t) (clinical; 3.8 mg, AUC2 hrs, Mean (SD)): 19.3 ng·h/mL
- AUC(0-t) (clinical; 3.8 mg, AUC2 hrs, Median): 18.4 ng·h/mL
- AUC(0-inf) (clinical; 3.8 mg, Mean (SD)): 33.8 ng·h/mL
- AUC(0-inf) (clinical; 3.8 mg, Median): 32.2 ng·h/mL
- AUC(0-t) (clinical; 3.8 mg, AUCt, Mean (SD)): 31.6 ng·h/mL
- AUC(0-t) (clinical; 3.8 mg, AUCt, Median): 29.9 ng·h/mL
- Cmax (clinical; 3.8 mg, Mean (SD)): 22.6 ng/mL
- Cmax (clinical; 3.8 mg, Median): 19.9 ng/mL
- Tmax (clinical; 3.8 mg, Tmax, Mean (SD)): 16.1 min
- Tmax (clinical; 3.8 mg, Tmax, Median): 15 min
- half-life (clinical; 3.8 mg, t1/2, Median): 87.2 min
- Tmax (clinical; Tmax, Mean (SD)): 18.4 min
- Tmax (clinical; Tmax, Median): 20 min
- Tmax (clinical; mean Tmax): 16.1 to 18.4 min
- Cmax (clinical; po, 2.5 mg, Median): 3.7 ng/mL
- half-life (clinical; t1/2, Mean (SD)): 77.2 min
- half-life (clinical; t1/2, Median): 82 min
- AUC0-last ([2]; (F)): 108.6 ng·h/mL
- Cmax ([2]; (F)): 20.9 ng/mL
- AUC0-last ([2]; (M)): 84.4 ng·h/mL
- Cmax ([2]; (M)): 16.6 ng/mL
- % PAIN FREE (migraine; [3]): 10.6%
- % PAIN RELIEF (migraine; [3]): 40.2%
- % PAIN FREE (migraine; [4]): 21.0%
- % PAIN RELIEF (migraine; [4]): 55.4%
- % PAIN FREE (migraine; [5]): 38.4%
- % PAIN RELIEF (migraine; [5]): 63.4%
- % PAIN FREE (migraine; [6]): 7.8%
- % PAIN RELIEF (migraine; [6]): 45.0%
- % PAIN FREE (migraine; [7]): 27.0%
- % PAIN RELIEF (migraine; [7]): 63.0%
- % PAIN FREE (migraine; ODT 2.5 mg, 4 hour, Dowson et al, 2002): 37.0%
- % PAIN FREE (migraine; [8]): 10.4%
- % PAIN RELIEF (migraine; [8]): 35.3%
- % PAIN FREE (migraine; [9]): 5.7%
- % PAIN RELIEF (migraine; [9]): 25.1%
- % PAIN FREE (migraine; [10]): 35.6%
- % PAIN RELIEF (migraine; [10]): 66.8%
- % PAIN FREE (migraine; [11]): 26.3%
- % PAIN RELIEF (migraine; [11]): 59.6%
- % PAIN RELIEF (migraine; TABLET 2.5 mg, 4 hour, Steiner et al, 2003): 25.1%
- % PAIN FREE (migraine; [12]): 10.0%
- % PAIN RELIEF (migraine; [12]): 44.0%
- % PAIN FREE (migraine; [13]): 7.8%
- % PAIN RELIEF (migraine; [13]): 34.2%
- % PAIN FREE (migraine; [14]): 39.0%
- % PAIN RELIEF (migraine; [14]): 66.0%
- % PAIN FREE (migraine; [15]): 29.3%
- % PAIN RELIEF (migraine; [15]): 58.7%
- % PAIN FREE (migraine; [16]): 54.6%
- % PAIN RELIEF (migraine; [16]): 80.5%
- % PAIN FREE (migraine; [17]): 9.0%
- % PAIN RELIEF (migraine; [17]): 40.0%
- % PAIN FREE (migraine; [18]): 39.0%
- % PAIN RELIEF (migraine; [18]): 71.0%
- pain freedom at 2 hours (migraine; lowest oral dose): 29%
- pain relief at 2 hours (migraine; lowest oral dose): 62%
